According to patent US20210078958A1, “QUINAZOLINE DERIVATIVE AND USE THEREOF” (MEDSHINE DISCOVERY INC., priority 2017, published 2021):
Where two headings read alike, the source gives them in different places.

Assays:
HER1 (ErbB1) = HER1 (ErbB1) (Homo sapiens, UniProt P00533); test: in vitro enzyme activity, HER1 (ErbB1); format: biochemical; details: human ErbB1, [γ-33P]ATP, poly(Glu, Tyr) substrate
Method: The purpose of this assay is to detect the in vitro inhibitory activity of compounds on HER1 (ErbB1), HER2 (ErbB2), and HER4 (ErbB4). The enzymes used in this assay are human ErbB1, ErbB2 and ErbB4. Eurofins Pharma Discovery Service provided the method for activity detection.
Steps and Method of the Assay (96-Well Plate):
A buffer solution of the test compounds in a dilution of 5-fold (5 μL), polypeptide substrate poly(Glu, Tyr) (4:1) (2.5 μL), ErbB (4-20 ng, 2.5 μL), MnCl2 (50 mM, 1.25 μL), dH2O (3.75 μL), and [γ-^33P]ATP (10 μL) were added, and incubated at 30° C. for 10 minutes. The reaction was terminated by adding 3% phosphoric acid. 10 μL of the sample was taken and transferred to Filtermate A. The filter disc was washed 3 times with 75 mM phosphoric acid and once with methanol. The filter disc was transferred to a sealed plastic bag and the scintillation mixture (4 mL) was added. The intensity of the emitted photon was detected by a scintillation luminescence counter. The CPM (times/min) of the enzyme sample was compared with the CPM of the internal control sample. The level of photon intensity reflected the degree of the tyrosine kinase activity.

[1] = test system: subcutaneous xenograft tumor of human gastric cancer NCI-N87 cells; format: in vivo; details: for Tumor volume (mm3) (Day 21) / T/C (%) / TGI (%): 3 mg/kg (D0-7) + 1 mg/kg (D8-21); for Tumor volume (mm3) (Day 21): NCI-N87 xenograft, Mean ± SEM; for T/C (%) / TGI (%): day 21
Method: Purpose of the assay: to evaluate the in vivo efficacy of compounds to be tested on subcutaneous xenograft tumor of human gastric cancer NCI-N87 cells in a BALB/c nude mouse model.
Animals of the assay: female BALB/c nude mice, 6-8 weeks old, weighted 18-22 grams; supplier: shanghai sippr bk laboratory animals Ltd.
Human gastric cancer NCI-N87 cells were cultured in monolayer in vitro. The culture conditions were RPMI-1640 medium plus 10% fetal bovine serum, 100 U/mL penicillin, 100 μg/mL streptomycin and 2 mM glutamine, 37° C., 5% CO2. The passaging was performed by the conventional digestion with trypsin-EDTA twice a week. When the cell saturation was 80%-90%, the cells were collected, counted and inoculated.
0.2 mL (10×10^6 cells) of NCI-N87 cells were inoculated subcutaneously on the right back of each nude mouse (PBS+Matrigel, 1:1). When the average tumor volume reached 145 mm^3, administration to each group was started.
The test compounds were formulated into a 0.3 mg/mL clear solution in the solvents of 10% NMP (N-methylpyrrolidone)+10% ethylene glycol stearate+80% water.
The assay index is to investigate whether tumor growth is inhibited, delayed or cured. Tumor diameter was measured twice a week with a vernier caliper. The calculation formula of tumor volume is: V=0.5a×b^2, wherein a and b represent the long and short diameters of tumor, respectively.
The antitumor efficacy of the compounds were evaluated by TGI (%) or relative tumor proliferation rate T/C (%). TGI (%) reflects the tumor growth inhibition rate. TGI (%) is calculated as follows: TGI (%)=[1−(average tumor volume at the end of administration for a certain treatment group−average tumor volume at the beginning of administration for this treatment group)/(average tumor volume at the end of treatment for a solvent control group−average tumor volume at the beginning of administration for this solvent control group)][…].
Relative tumor proliferation rate T/C (%): the calculation formula is as follows: T/C %=TRTV/CRTV (TRTV: RTV for the treatment group; CRTV: RTV for the negative control group). Relative tumor volume (RTV) is calculated based on tumor measurement results. The calculation formula is RTV=Vt/V0, wherein V0 is the average tumor volume measured at the beginning of administration (i.e., d0) to each group, Vt is the average tumor volume at a certain measurement, and the data for TRTV and CRTV were taken on the same day.
The tumor weight was measured after the assay is over and the T/C weight percentage was calculated. T weight and C weight represent the tumor weight of the administration group and the vehicle control group, respectively.
Statistical analysis included the mean and standard error (SEM) of tumor volume at each time point in each group. […] The comparison between two groups was analyzed by T-test, and the comparison among three or more groups was analyzed by one-way ANOVA. […] All data analysis was carried out with SPSS 17.0. p<0.05 was considered a significant difference.

CYP1A2 = biological target: T1, CYP1A2 (Homo sapiens, UniProt P05177); test: inhibition of CYP enzyme activity in human liver microsome, CYP1A2; format: in vitro ADME
T1 construct: in the assay of CYP enzyme activity in human liver microsome; from tissue; host or cells: human liver microsome
T1 sequence (P05177 1-516): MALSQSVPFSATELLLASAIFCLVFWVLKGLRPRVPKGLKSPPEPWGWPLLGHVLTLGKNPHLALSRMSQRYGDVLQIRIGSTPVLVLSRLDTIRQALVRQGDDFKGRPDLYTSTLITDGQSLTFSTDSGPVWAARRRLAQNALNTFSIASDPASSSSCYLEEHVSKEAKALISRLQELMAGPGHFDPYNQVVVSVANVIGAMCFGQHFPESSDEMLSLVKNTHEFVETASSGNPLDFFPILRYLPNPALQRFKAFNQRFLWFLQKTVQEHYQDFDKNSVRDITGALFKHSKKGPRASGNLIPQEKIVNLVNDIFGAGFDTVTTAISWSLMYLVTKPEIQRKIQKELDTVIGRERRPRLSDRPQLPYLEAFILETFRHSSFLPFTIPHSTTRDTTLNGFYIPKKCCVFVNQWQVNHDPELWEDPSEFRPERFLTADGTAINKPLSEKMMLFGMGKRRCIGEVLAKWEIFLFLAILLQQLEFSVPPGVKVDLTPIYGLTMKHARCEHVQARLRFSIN
Excerpt: (§1) The results of the compounds disclosed herein and the reference compound Poziotinib in the assay of CYP enzyme activity in human liver microsome were shown in the following table (Table 8).

CYP2C9 = biological target: T2, CYP2C9 (Homo sapiens, UniProt P11712); test: inhibition of CYP enzyme activity in human liver microsome, CYP2C9; format: in vitro ADME
T2 construct: in the assay of CYP enzyme activity in human liver microsome; from tissue; host or cells: human liver microsome
Excerpt: as §1

T2 sequence (P11712 whole entry): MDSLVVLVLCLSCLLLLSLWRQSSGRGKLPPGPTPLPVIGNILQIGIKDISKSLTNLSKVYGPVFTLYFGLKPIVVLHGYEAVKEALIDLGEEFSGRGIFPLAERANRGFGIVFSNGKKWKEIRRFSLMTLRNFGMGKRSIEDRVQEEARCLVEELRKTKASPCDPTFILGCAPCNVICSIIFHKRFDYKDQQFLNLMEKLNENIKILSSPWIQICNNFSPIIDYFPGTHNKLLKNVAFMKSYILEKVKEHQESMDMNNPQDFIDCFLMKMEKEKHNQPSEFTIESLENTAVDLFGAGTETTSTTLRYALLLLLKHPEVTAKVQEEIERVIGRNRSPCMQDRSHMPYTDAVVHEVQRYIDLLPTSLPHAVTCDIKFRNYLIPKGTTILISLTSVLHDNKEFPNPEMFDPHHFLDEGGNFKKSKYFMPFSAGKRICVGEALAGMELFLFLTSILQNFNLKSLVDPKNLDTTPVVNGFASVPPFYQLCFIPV
Sequence of HER1 (ErbB1) (P00533 25-1210): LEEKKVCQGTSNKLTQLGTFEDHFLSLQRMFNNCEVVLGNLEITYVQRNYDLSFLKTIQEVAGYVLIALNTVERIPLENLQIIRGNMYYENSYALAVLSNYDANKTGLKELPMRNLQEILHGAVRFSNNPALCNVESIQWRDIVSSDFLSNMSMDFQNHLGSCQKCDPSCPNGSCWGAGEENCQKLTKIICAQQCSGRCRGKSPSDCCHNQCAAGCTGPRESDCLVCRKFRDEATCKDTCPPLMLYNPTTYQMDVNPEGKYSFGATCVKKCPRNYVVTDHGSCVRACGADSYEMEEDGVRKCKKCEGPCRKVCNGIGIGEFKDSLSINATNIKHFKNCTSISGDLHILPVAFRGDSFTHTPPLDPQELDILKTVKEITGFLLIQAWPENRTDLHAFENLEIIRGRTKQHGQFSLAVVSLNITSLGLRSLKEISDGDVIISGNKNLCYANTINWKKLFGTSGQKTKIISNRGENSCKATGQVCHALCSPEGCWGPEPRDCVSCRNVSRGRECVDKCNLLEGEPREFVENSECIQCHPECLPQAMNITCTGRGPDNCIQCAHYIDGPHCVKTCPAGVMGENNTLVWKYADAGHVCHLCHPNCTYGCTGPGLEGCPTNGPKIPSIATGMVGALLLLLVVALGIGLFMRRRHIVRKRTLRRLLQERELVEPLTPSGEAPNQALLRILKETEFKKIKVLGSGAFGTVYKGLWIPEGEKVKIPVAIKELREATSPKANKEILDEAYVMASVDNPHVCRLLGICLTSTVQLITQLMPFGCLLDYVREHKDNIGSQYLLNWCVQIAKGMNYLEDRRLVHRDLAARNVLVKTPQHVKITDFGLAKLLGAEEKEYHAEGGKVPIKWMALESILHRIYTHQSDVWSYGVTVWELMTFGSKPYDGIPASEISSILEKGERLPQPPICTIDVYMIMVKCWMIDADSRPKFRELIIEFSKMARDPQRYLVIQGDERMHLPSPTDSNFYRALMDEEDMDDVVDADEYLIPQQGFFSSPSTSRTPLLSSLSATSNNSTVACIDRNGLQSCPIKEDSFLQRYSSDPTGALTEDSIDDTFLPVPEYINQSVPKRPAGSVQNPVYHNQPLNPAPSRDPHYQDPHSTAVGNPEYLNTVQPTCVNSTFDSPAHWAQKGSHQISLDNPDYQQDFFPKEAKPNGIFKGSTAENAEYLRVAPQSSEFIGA

| SMILES | IC50 (HER1 (ErbB1)) | Tumor volume (mm3) (Day 21) [1] | T/C (%) [1] | TGI (%) [1] | body weight of test animals (reference index for drug toxicity) ([1]; mouse, in vivo) | IC50 (CYP1A2) | inhibition of CYP enzyme CYP1A2 (CYP1A2; microsomes) | IC50 (CYP2C9) | activity on CYP2C9, times better than that of the reference compound (CYP2C9; versus Poziotinib) | inhibition of CYP enzyme CYP1A2 (CYP1A2; human liver microsome) | IC50 (CYP1A2; human liver microsome, read-out: inhibition of CYP enzyme CYP1A2) |
| --- | --- | --- | --- | --- | --- | --- | --- | --- | --- | --- | --- |
| C=CC(=O)N1[C@@H]2CC[C@H]1C[C@H](Oc1cc3c(Nc4ccc(Cl)c(Cl)c4F)ncnc3cc1OC)C2 [Example 8] | 0.006 µM | 30 ± 7 mm3 | 4.19% | 119.71% | significantly better than that of the control compound Poziotinib | – | – | – | – | – | – |
| C=CC(=O)N1[C@@H]2CC[C@H]1C[C@H](Nc1cc3c(Nc4ccc(Cl)c(Cl)c4F)ncnc3cc1OC)C2 [Example 38] | 0.008 µM | – | – | – | – | > 50 µM | no inhibitory activity | 16 µM | 2 times | – | – |
| C=CC(=O)N1CCC(Oc2cc3c(Nc4ccc(Cl)c(Cl)c4F)ncnc3cc2OC)CC1 [Poziotinib, reference compound] | – | 54 ± 12 mm3 | 7.55% | 115.6% | – | – | – | 8 µM | – | no inhibitory activity | > 50 µM |
